Test system: 941728-121-R-J1-PDC complex spheroid viability
Assay: Anticancer human tumor 941728-121-R-J1-PDC patient-derived lung adenocarcinoma cell line growth inhibition [RAS]
Conditions: for IC50: curve of first compound; for viability, T/C: stronger effect = lower value
Outline: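 Multi-cell-type spheroids: tumor cells plus HUVEC endothelial cells and mesenchymal stem cells. RAS-pathway inhibitors were combined with targeted agents, each dosed in half-log steps down from clinical Cmax, or from 10 microM when Cmax was unknown.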

[1] = second compound 0.000949 µM, first compound 0.0316 µM
[2] = second compound 0.000949 µM, first compound 0.1 µM
[3] = second compound 0.000949 µM, first compound 0.316 µM
[4] = second compound 0.000949 µM, first compound 1 µM
[5] = second compound 0.000949 µM, first compound 3.16 µM
[6] = second compound 0.000949 µM, first compound 10 µM
[7] = second compound 0.003 µM, first compound 0.0316 µM
[8] = second compound 0.003 µM, first compound 0.1 µM
[9] = second compound 0.003 µM, first compound 0.316 µM
[10] = second compound 0.003 µM, first compound 1 µM
[11] = second compound 0.003 µM, first compound 3.16 µM
[12] = second compound 0.003 µM, first compound 10 µM
[13] = second compound 0.00949 µM, first compound 0.0316 µM
[14] = second compound 0.00949 µM, first compound 0.1 µM
[15] = second compound 0.00949 µM, first compound 0.316 µM
[16] = second compound 0.00949 µM, first compound 1 µM
[17] = second compound 0.00949 µM, first compound 3.16 µM
[18] = second compound 0.00949 µM, first compound 10 µM
[19] = second compound 0.03 µM, first compound 0.0316 µM
[20] = second compound 0.03 µM, first compound 0.1 µM
[21] = second compound 0.03 µM, first compound 0.316 µM
[22] = second compound 0.03 µM, first compound 1 µM
[23] = second compound 0.03 µM, first compound 3.16 µM
[24] = second compound 0.03 µM, first compound 10 µM
[25] = second compound 0.0949 µM, first compound 0.0316 µM
[26] = second compound 0.0949 µM, first compound 0.1 µM
[27] = second compound 0.0949 µM, first compound 0.316 µM
[28] = second compound 0.0949 µM, first compound 1 µM
[29] = second compound 0.0949 µM, first compound 3.16 µM
[30] = second compound 0.0949 µM, first compound 10 µM
[31] = second compound 0.3 µM, first compound 0.0316 µM
[32] = second compound 0.3 µM, first compound 0.1 µM
[33] = second compound 0.3 µM, first compound 0.316 µM
[34] = second compound 0.3 µM, first compound 1 µM
[35] = second compound 0.3 µM, first compound 3.16 µM
[36] = second compound 0.3 µM, first compound 10 µM
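Note: spheroids exposed to compounds for 7 days before readout.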
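Throughout, for viability, T/C: 100% = DMSO vehicle control viability.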

CC(C)NCC(C(=O)N1CCN(c2ncnc3c2C(C)CC3O)CC1)c1ccc(Cl)cc1 (stereo unspecified) + CCn1c(-c2cccnc2C(C)OC)c2c3cc(ccc31)N1CCOC(CC(NC(=O)C(C(C)C)N(C)C(=O)C3(F)CCN(C(=O)C#CC(C)(C)N(C)C)CC3)C(=O)N3CCCC(N3)C(=O)OCC(C)(C)C2)C1
IC50 (second compound 0.000949 µM): < 0.0316 µM | IC50 (second compound 0.003 µM): < 0.0316 µM | IC50 (second compound 0.00949 µM): < 0.0316 µM | IC50 (second compound 0.03 µM): < 0.0316 µM | IC50 (second compound 0.0949 µM): < 0.0316 µM | IC50 (second compound 0.3 µM): < 0.0316 µM | viability, T/C [1]: 25.4% | viability, T/C [2]: 23% | viability, T/C [3]: 17.7% | viability, T/C [4]: 18.8% | viability, T/C [5]: 14.5% | viability, T/C [6]: 7.61% | viability, T/C [7]: 23.5% | viability, T/C [8]: 21.9% | viability, T/C [9]: 18.5% | viability, T/C [10]: 18.1% | viability, T/C [11]: 14.7% | viability, T/C [12]: 9.24% | viability, T/C [13]: 23.1% | viability, T/C [14]: 15.8% | viability, T/C [15]: 22.4% | viability, T/C [16]: 17.5% | viability, T/C [17]: 13.2% | viability, T/C [18]: 9.76% | viability, T/C [19]: 22.8% | viability, T/C [20]: 22.1% | viability, T/C [21]: 19.3% | viability, T/C [22]: 17.7% | viability, T/C [23]: 12.9% | viability, T/C [24]: 10.9% | viability, T/C [25]: 21.1% | viability, T/C [26]: 21.2% | viability, T/C [27]: 20.7% | viability, T/C [28]: 17.8% | viability, T/C [29]: 11.9% | viability, T/C [30]: 10.9% | viability, T/C [31]: 24.7% | viability, T/C [32]: 22.9% | viability, T/C [33]: 18.9% | viability, T/C [34]: 17.1% | viability, T/C [35]: 13% | viability, T/C [36]: 11.2%

CC(Nc1ccc2c(c1)OCCn1cc(N3C(=O)OCC3C(F)F)nc1-2)C(N)=O (stereo unspecified) + CCn1c(-c2cccnc2C(C)OC)c2c3cc(ccc31)N1CCOC(CC(NC(=O)C(C(C)C)N(C)C(=O)C3(F)CCN(C(=O)C#CC(C)(C)N(C)C)CC3)C(=O)N3CCCC(N3)C(=O)OCC(C)(C)C2)C1
IC50 (second compound 0.000949 µM): < 0.0316 µM | IC50 (second compound 0.003 µM): < 0.0316 µM | IC50 (second compound 0.00949 µM): < 0.0316 µM | IC50 (second compound 0.03 µM): < 0.0316 µM | IC50 (second compound 0.0949 µM): < 0.0316 µM | IC50 (second compound 0.3 µM): < 0.0316 µM | viability, T/C [1]: 18.5% | viability, T/C [2]: 20.6% | viability, T/C [3]: 12.5% | viability, T/C [4]: 15.8% | viability, T/C [5]: 13.3% | viability, T/C [6]: 9.24% | viability, T/C [7]: 20.5% | viability, T/C [8]: 17.2% | viability, T/C [9]: 14.4% | viability, T/C [10]: 14.3% | viability, T/C [11]: 13.8% | viability, T/C [12]: 9.35% | viability, T/C [13]: 18.9% | viability, T/C [14]: 15.3% | viability, T/C [15]: 15.1% | viability, T/C [16]: 14.7% | viability, T/C [17]: 11.5% | viability, T/C [18]: 11.7% | viability, T/C [19]: 19.8% | viability, T/C [20]: 18% | viability, T/C [21]: 14.6% | viability, T/C [22]: 15.7% | viability, T/C [23]: 9.34% | viability, T/C [24]: 12.8% | viability, T/C [25]: 18.8% | viability, T/C [26]: 18.4% | viability, T/C [27]: 15.8% | viability, T/C [28]: 11.8% | viability, T/C [29]: 12.1% | viability, T/C [30]: 13.7% | viability, T/C [31]: 19.9% | viability, T/C [32]: 18.8% | viability, T/C [33]: 14.6% | viability, T/C [34]: 14.7% | viability, T/C [35]: 13.5% | viability, T/C [36]: 12.3%

O=C(c1ccc(F)c(F)c1Nc1ccc(I)cc1F)N1CC(O)([C@@H]2CCCCN2)C1 + CCn1c(-c2cccnc2C(C)OC)c2c3cc(ccc31)N1CCOC(CC(NC(=O)C(C(C)C)N(C)C(=O)C3(F)CCN(C(=O)C#CC(C)(C)N(C)C)CC3)C(=O)N3CCCC(N3)C(=O)OCC(C)(C)C2)C1
IC50 (second compound 0.000949 µM): < 0.00316 µM | IC50 (second compound 0.003 µM): 0.0219 µM | IC50 (second compound 0.00949 µM): < 0.00316 µM | IC50 (second compound 0.03 µM): < 0.00316 µM | IC50 (second compound 0.0949 µM): < 0.00316 µM | IC50 (second compound 0.3 µM): < 0.00316 µM | viability, T/C (second compound 0.000949 µM, first compound 0.00316 µM): 20.5% | viability, T/C (second compound 0.000949 µM, first compound 0.01 µM): 18.8% | viability, T/C [1]: 13.7% | viability, T/C [2]: 17.1% | viability, T/C [3]: 12.5% | viability, T/C [4]: 7.9% | viability, T/C (second compound 0.003 µM, first compound 0.00316 µM): 94.2% | viability, T/C (second compound 0.003 µM, first compound 0.01 µM): 64.1% | viability, T/C [7]: 37.4% | viability, T/C [8]: 38% | viability, T/C [9]: 35.4% | viability, T/C [10]: 18.4% | viability, T/C (second compound 0.00949 µM, first compound 0.00316 µM): 18.6% | viability, T/C (second compound 0.00949 µM, first compound 0.01 µM): 15.4% | viability, T/C [13]: 17% | viability, T/C [14]: 14.6% | viability, T/C [15]: 11.6% | viability, T/C [16]: 9.5% | viability, T/C (second compound 0.03 µM, first compound 0.00316 µM): 18.3% | viability, T/C (second compound 0.03 µM, first compound 0.01 µM): 17.9% | viability, T/C [19]: 18.8% | viability, T/C [20]: 12.8% | viability, T/C [21]: 12.4% | viability, T/C [22]: 12.2% | viability, T/C (second compound 0.0949 µM, first compound 0.00316 µM): 19.4% | viability, T/C (second compound 0.0949 µM, first compound 0.01 µM): 17.1% | viability, T/C [25]: 15.8% | viability, T/C [26]: 13.6% | viability, T/C [27]: 12.9% | viability, T/C [28]: 15.1% | viability, T/C (second compound 0.3 µM, first compound 0.00316 µM): 17.9% | viability, T/C (second compound 0.3 µM, first compound 0.01 µM): 20% | viability, T/C [31]: 15.8% | viability, T/C [32]: 15.7% | viability, T/C [33]: 13.7% | viability, T/C [34]: 14%
